From patent US7608640B2, “Glycine betaine and its use” (priority 2001, dated 2009)
Several values for one entry are separate records, joined by “and”; a condition that tells them apart may be missing. Equal entries are not always repeated.

Tests used:
[1] = system: heparin-induced bleeding in rat; experiment: Tail cut bleeding test in heparinized rat; format: in vivo; conditions: for IHT (hemorrhage time), Mean / IHT (hemorrhage time), individual rats: Example 35, betaine 10 mg/kg and/or heparin 5 mg/kg s.c. 1 hour prior to testing
Description: This example determined the effect of betaine on hemorrhage time in a heparinized rat. Forty male Wistar rats were purchased from Charles River, France and were acclimated for one week prior to testing. Each animal was weighed prior to testing (weights ranged from 225 to 275 g, mean weight=245 g) and the group of 40 rats was further divided into 4 groups of 10 rats each. One group acted as a control group and each rat in this group received a subcutaneous injection of saline 1 hour prior to testing. The second group received a 10 mg/kg subcutaneous injection of betaine 1 hour prior to testing. The third group received a 5 mg/kg subcutaneous injection of heparin 1 hour prior to testing and the last group received a subcutaneous injection consisting of 5 mg/kg heparin plus 10 mg/kg betaine 1 hour prior to testing. The rats were anesthetized by intramuscular injection of Nesdonal (200 mg/kg). The products were then injected subcutaneously in the abdomen one hour before the tail cut induced bleeding test. For the group receiving the combined heparin/betaine (group 4) injections, the heparin and betaine were injected using different syringes at different sites of administration (left and right sides of the abdomen) in order to avoid any direct reactions between the two substances.
The tail of the anaesthetized rat was dipped for 5 minutes in a water bath at 37° C. in order to induce a dilation of the peripheral vessels. The tail was then removed from the water bath and sectioned at 10-15 mm from the extremity. The chronometer was then started. The IHT is defined as the time, in seconds, between the tail section and the end of the hemorrhage or bleeding. The end of hemorrhage is defined as the moment when the last drop of blood is collected from the tail and when no other drop is observed during 180 seconds. The amount of blood was estimated by visual inspection. […] Betaine has no significant effect on bleeding time and combined use of betaine with heparin almost restored the bleeding time to normal, thereby indicating an antidote-like activity of betaine against heparin.
This example investigated the effect of delayed betaine administration on active heparin-induced bleeding (antidote type administration) in a rat. Twelve male Wistar rats were purchased from Charles River, France and were acclimated for one week prior to testing. Each rat was weighed prior to testing (weights ranged from 245-280 g with a mean of 260 g) and the group of twelve was divided into 3 subgroups. Three rats were in the control group which received two saline injections, one at T0, one at T0+45 minutes. Three rats were in the […] group which received one injection of heparin (5 mg/kg) at T0. Six rats were in the antidote group which received a heparin injection (5 mg/kg) at T0, and a betaine injection (10 mg/kg) at T0+45 minutes. […] However, at the end of the bleeding experiments, blood was sampled by intracardiac puncture on Na-citrate (3.8%, 1:10) and plasmas of the collected blood samples were kept at −20° C. for future biological assays. Chemical products were also identical.
This example investigated the effect of delayed betaine administration in an antidote type administration inhibited the bleeding time and volume of blood loss induced by heparin treatment in a rat. Twenty male Wistar rats were purchased from Charles River, France and were acclimated for one week prior to the tests. Each rat was weighed prior to testing (weights ranged from 240-340 g with a mean weight of 275 g) and divided into 2 groups of 10 animals each. One group received an injection of heparin (5 mg/kg) at T0. The second group received a heparin injection (5 mg/kg) at T0, and a betaine injection (10 mg/kg) at T0+30 minutes. Both groups were subjected to a bleeding test at T0+60 minutes. The testing was performed using the previously described methodology with slight modifications. The tails were sectioned at 5-8 mm from the extremity. […]

bleeding time in rats = experiment: Induced haemorrhagic (bleeding) time, tail cut; format: in vivo, rat; conditions: for B.T.C. (bleeding time caused): 5 mg/ml/kg; for Provoked haemorrhage: after 24 hours; for Induced haemorrhage: oral 50 mg/kg; for Bleeding time: rat, glycine betaine 5 mg/kg, acetylsalicylic acid 100 mg/kg, heparin 2 mg/kg
Description: Induced Haemorrahgic Time IHT
(E. Dejana. Bleeding time in rats. Thrombosis. Rech. 1982) Blood samples are made before the test. The tail of anaesthetised rat, is dipped for 5 minutes in a water bath at 37° C. so as to provoke a dilatation of the peripheral vessels which are removed and cut at the end, the chronometer being started. The IHT is defined as being the time period comprised between the cutting of end tail and the end of the haemorrhage or bleeding. The end of haemorrhage is defined as the time where the last drop of blood is removed from the tail and no other drop is seen for 180 seconds. […]

[2] = system: arterial thrombosis induced by laser beam in the mesenteric microcirculation of the rat; experiment: Laser-induced thrombosis in the mesenteric microcirculation; format: in vivo
Source text: A/Principle of Laser-induced Thrombosis (Seiffge D. et al., 1989; Weichter W. et al., 1983).
In this model, lesion of the vascular wall is induced by a laser beam. This beam causes a limited lesion of the vascular endothelium (only 1 to 2 cells are destroyed). This laying bare of the sub-endothelium, which is a thrombogenetic surface, results in the adherence of platelets via […]. This adherence of platelets is followed by the activation thereof. They form pseudopods and secrete the content of their granules. This activation results in the appearance of glycoproteins IIb-IIIa which are necessary for the aggregation of the platelets between them. This lesion is induced in the mesenteric microcirculation of the rat. It is immediately followed by the formation of a thrombus (in a few seconds). This thrombus, which rapidly enlarges under the influence of the flow of blood, embolises before being formed again.
By this manes, the assessment of the effect of glycine betaine was conducted pharmacologically in conjunction with the study of two active molecules used as a reference; namely acetylsalicylic acid and heparin (of low molecular weight). The assessment also involved the activity of glycine betaine in relation to the prothrombotic effects induced by contrasting products.
Male Wistar rats were used for these tests. They weighed between 200 and 250 grams. After an 8-day stabilisation period, the rats were subjected to fasting for 12 hours. They were then anaesthetised, glycine betaine was administered subcutaneously, and the mesentery (laser) or vena cava (stasis) was opened at the end of the experiments.

blood cells = experiment: Blood cell counts; format: in vivo, rat; conditions: rat; glycine betaine 5 mg/kg, acetylsalicylic acid 100 mg/kg, heparin 2 mg/kg
[3] = 5 mg/ml/kg, Group I: injected 1 hour before
[4] = 5 mg/ml/kg, Group II: injected 2 hours before
[5] = 5 mg/ml/kg, Group III: injected 3 hours before
[6] = 5 mg/ml/kg, Group IV: injected 4 hours before
[7] = 24 hours after sub cutaneous 10 mg/kg
[8] = 24 hours after sub cutaneous administration, title 20 mg/kg, table line 10 mg/kg
[9] = rat, after laser firings, glycine betaine 5 mg/kg, acetylsalicylic acid 100 mg/kg, heparin 2 mg/kg
[10] = Example 36, heparin 5 mg/kg at T0, betaine 10 mg/kg at T0+45 minutes, bleeding test at T0+75 minutes
[11] = Example 37, heparin 5 mg/kg at T0, betaine 10 mg/kg at T0+30 minutes, test at T0+60 minutes

C[N+](C)(C)CC(=O)O [Glycine betaine]
IHT (hemorrhage time), Mean [1]: 169.9 s | IHT (hemorrhage time), individual rats [1]: 166 s and 180 s and 162 s and 173 s and 194 s and 203 s and 159 s and 142 s and 123 s and 197 s | Volume of blood loss by visual inspection ([1]; Example 36, antidote group versus heparin group): significantly reduced | B.T.C. (bleeding time caused) (bleeding time in rats; Group I: injected 1 hour before the experiment): 105 ± 26.2 s | B.T.C. (bleeding time caused) (bleeding time in rats; Group II: injected 2 hours before the experiment): 145 ± 15.52 s | B.T.C. (bleeding time caused) (bleeding time in rats; Group III: injected 3 hours before the experiment): 115.5 ± 14.2 s | B.T.C. (bleeding time caused) (bleeding time in rats; Group IV: injected 4 hours before the experiment): 120 ± 10.13 s | Provoked Haemorrhage time (bleeding time in rats; 10 mg/kg subcutaneous): 105 s | Provoked haemorrhage (bleeding time in rats; 10 mg/kg subcutaneous): 114 ± 12.76 s | Provoked haemorrhage (bleeding time in rats; 20 mg/kg subcutaneous): 110 ± 13.22 s | Provoked Haemorrhage time (bleeding time in rats; 30 mg/kg subcutaneous): 112 s | Provoked Haemorrhage time (bleeding time in rats; 50 mg/kg subcutaneous): 115 s | Induced haemorrhage (bleeding time in rats; 1 hour): 120 ± 5 s | Induced haemorrhage (bleeding time in rats; 6 hours): 111 ± 3.6 s | Induced haemorrhage (bleeding time in rats; 24 hours): 113.33 ± 18.92 s | Induced haemorrhage (bleeding time in rats; 48 hours): 109 ± 8.54 s | Bleeding time (bleeding time in rats): 95 ± 5 s | Duration of embolisation [2, 3]: 0.51 ± 0.5 min | Number of emboles [2, 3]: 1.8 ± 1.44 | Number of firings [2, 3]: 3.49 ± 1.07 | Duration of embolisation [2, 4]: 0.3 ± 0.23 min | Number of emboles [2, 4]: 1.4 ± 1.18 | Number of firings [2, 4]: 3.0 ± 1.5 | Duration of embolisation [2, 5]: 1.00 ± 0.5 min | Number of emboles [2, 5]: 1.99 ± 0.4 | Number of firings [2, 5]: 2.50 ± 1.25 | Duration of embolisation [2, 6]: 1.5 ± 0.6 min | Number of emboles [2, 6]: 2.2 ± 0.69 | Number of firings [2, 6]: 2.7 ± 1.0 | Embolisation time [2, 7]: 0 ± 0 min | Number of emboles [2, 7]: 1 +/− 0 | Number of laser firing [2, 7]: 3.33 +/− 0.57 | Embolisation time [2, 8]: 0 ± 0 min | Number of emboles [2, 8]: 0.66 +/− 0.57 | Number of laser firing [2, 8]: 3.33 +/− 0.57 | Embolisation time ([2]; oral 50 mg/kg, 1 hour): 0 ± 0 min | Number of laser firing ([2]; oral 50 mg/kg, 1 hour): 4 +/− 0 | Embolisation time ([2]; oral 50 mg/kg, 6 hours): 1 ± 0 min | Number of emboles ([2]; oral 50 mg/kg, 6 hours): 2.33 +/− 0.57 | Number of laser firing ([2]; oral 50 mg/kg, 6 hours): 3.66 +/− 0.57 | Embolisation time ([2]; oral 50 mg/kg, 24 hours): 1 ± 0 min | Number of emboles ([2]; oral 50 mg/kg, 24 hours): 2.33 +/− 0.57 | Number of laser firing ([2]; oral 50 mg/kg, 24 hours): 2.33 +/− 0.57 | Number of emboles ([2]; oral 50 mg/kg, 48 hours): 4.33 +/− 0.57 | Duration of embolisation [2, 9]: 1 ± 0 min | Number of emboles or embolies [2, 9]: 2 ± 0 | Number of platelets (blood cells): 804.67 ± 20.03 10^9 | Number of red corpuscles (blood cells): 6.19 ± 0.25 10^12 | Number of white corpuscles (blood cells): 4.43 ± 0.32 10^9

Heparin
IHT (hemorrhage time), Mean [1]: 690.9 s | IHT (hemorrhage time), individual rats [1]: 679 s and 767 s and 680 s and 734 s and 702 s and 663 s and 735 s and 567 s | Bleeding Time, individual rats [1, 10]: 658 s and 597 s and 533 s | Bleeding time, Mean [1, 10]: 596 s | Bleeding Time, individual rats [1, 11]: 400 s and 345 s and 405 s and 370 s and 290 s and 265 s and 350 s and 300 s and 315 s and 275 s | Bleeding time, Mean [1, 11]: 331.5 s | Volume (blood loss), Mean [1, 11]: 1294 µL | Volume (blood loss), individual rats [1, 11]: 1650 μl and 1300 μl (2×) and 1800 μl and 1380 μl and 1200 μl and 940 μl and 1140 μl and 1130 μl and 1100 μl | Bleeding time (bleeding time in rats): 313.33 ± 20 s | Duration of embolisation [2, 9]: 1 ± 0 min | Number of emboles or embolies [2, 9]: 2.67 ± 0.52 | Number of platelets (blood cells): 777.33 ± 6.43 10^9 | Number of red corpuscles (blood cells): 6.20 ± 0.20 10^12 | Number of white corpuscles (blood cells): 5.80 ± 0.10 10^9
